The results in this text go back to PubChem BioAssay (NCI).

Some test systems named below: ACHN renal; MDA-MB-231 breast; NCI-H226 lung; NCI-H23 lung; OVCAR-5 ovarian; RXF 393 renal; SK-MEL-2 melanoma; SK-OV-3 ovarian; TK-10 renal; UACC-62 melanoma.
Holding throughout (assay): NCI anticancer screen, dose series, 48 h

“And” between values parts separate entries of the source, which are not always exact repeats. Identical values can stand only once.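 Five compound concentrations were applied to cells in 96-well plates for 48 hours; endpoints were derived by simple linear interpolation of the resulting dose-response curve. GI50 marks 50% less growth. TGI denotes the concentration required for complete inhibition of growth.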

Take `Cc1cnc2oc3ccc(O)cc3c2c1-c1ccccc1`: the GI50 in the assay with ACHN renal is 18.8 µM; in the assay on MDA-MB-231 breast, 3.54 µM; with NCI-H226 lung, 9.35 µM; with NCI-H23 lung it was 21.6 µM; with OVCAR-5 ovarian it was over 100 µM; in the assay on RXF 393 renal it was 18.5 µM. Also, the GI50 in the assay on SK-MEL-2 melanoma was over 100 µM; in the assay with SK-OV-3 ovarian it was 25 µM; in the assay with TK-10 renal, 20.3 µM; in the assay on UACC-62 melanoma, 6.02 µM. Also, the TGI in the assay on ACHN renal was over 100 µM; in the assay on MDA-MB-231 breast, over 100 µM; in the assay on NCI-H226 lung, 44.2 µM; with NCI-H23 lung, over 100 µM; in the assay with OVCAR-5 ovarian, over 100 µM; in the assay with RXF 393 renal it was 67.3 µM. The TGI is over 100 µM in the assay with SK-MEL-2 melanoma, 86.9 µM with SK-OV-3 ovarian, over 100 µM in the assay on TK-10 renal and 50.8 µM in the assay with UACC-62 melanoma.

Take `Cn1c(=O)nc2n(-c3ccc(Cl)cc3)c3cc(Cl)ccc3nc-2c1=O`: the TGI in the assay on ACHN renal was 25.5 µM; in the assay with MDA-MB-231 breast, 6.91 µM; in the assay with NCI-H226 lung, 42.5 µM; in the assay on NCI-H23 lung, 6.06 µM; with OVCAR-5 ovarian, 29.1 µM; in the assay on RXF 393 renal it was 9.25 µM. For the same molecule, the TGI in the assay on SK-MEL-2 melanoma was found to be 5.63 µM; in the assay on SK-OV-3 ovarian, 34.6 µM; in the assay with TK-10 renal, 37 µM; in the assay on UACC-62 melanoma, 3.57 µM.

`Cc1ccc2cccc(OC(=O)Nc3cccc(C(F)(F)F)c3)c2n1`: the GI50 with ACHN renal was 3.04 µM; in the assay with MDA-MB-231 breast, 2.37 µM; with NCI-H226 lung, 3.61 µM; with NCI-H23 lung, 2.78 µM; in the assay with OVCAR-5 ovarian, 6.44 µM; in the assay with RXF 393 renal it was 5.3 µM. For the same molecule, the GI50 with SK-MEL-2 melanoma is 3.47 µM; in the assay on SK-OV-3 ovarian, 4.37 µM; in the assay on TK-10 renal, 3.87 µM; in the assay on UACC-62 melanoma, 3.05 µM. The TGI with ACHN renal came to 12.4 µM; in the assay on MDA-MB-231 breast, 7.26 µM; in the assay on NCI-H226 lung, 14.1 µM; with NCI-H23 lung, 10 µM; with OVCAR-5 ovarian it was 32.1 µM; in the assay on RXF 393 renal, 21.9 µM. The TGI with SK-MEL-2 melanoma was 12.1 µM; with SK-OV-3 ovarian it was 16.2 µM; in the assay with TK-10 renal it was 18.2 µM; in the assay on UACC-62 melanoma, 11.2 µM.

For `COc1c(/C=C/C=O)cc2c(c1OC)OCO2`, the TGI with ACHN renal was over 100 µM; with MDA-MB-231 breast, 80 µM; in the assay on NCI-H226 lung, 70 µM; with NCI-H23 lung, over 100 µM; with OVCAR-5 ovarian it was over 100 µM; in the assay on RXF 393 renal, over 100 µM. Further, the TGI in the assay with SK-MEL-2 melanoma is 57.4 µM; in the assay on SK-OV-3 ovarian, over 100 µM; in the assay with TK-10 renal, over 100 µM; in the assay with UACC-62 melanoma, 57 µM.

For `COc1ccc(C(=NN=C(N)N)c2ccc(OC)cc2)cc1`, the GI50 in the assay with ACHN renal is 3.49 µM; in the assay with MDA-MB-231 breast, 3.88 µM; in the assay on NCI-H226 lung it was 4.37 µM; with NCI-H23 lung, 3.87 µM; in the assay with OVCAR-5 ovarian, 5.1 µM; with RXF 393 renal, 1.81 µM. The GI50 in the assay with SK-MEL-2 melanoma was 2.51 µM; in the assay on SK-OV-3 ovarian, 2.78 µM; in the assay on TK-10 renal, 4.26 µM; with UACC-62 melanoma it was 3.54 µM. Further, the TGI in the assay with ACHN renal was 13.3 µM; in the assay with MDA-MB-231 breast it was 17.1 µM; with NCI-H226 lung it was 18.3 µM; with NCI-H23 lung, 17.8 µM; in the assay with OVCAR-5 ovarian, 21.6 µM; in the assay on RXF 393 renal it was 4.82 µM. Further, the TGI was 12.6 µM with SK-MEL-2 melanoma, 10.6 µM in the assay with SK-OV-3 ovarian, 14.5 µM in the assay with TK-10 renal and 14.1 µM in the assay with UACC-62 melanoma.

In the case of `COc1cc(/C=C2\CCC/C(=C\c3ccc(O)c(OC)c3)C2=O)ccc1O`, the GI50 is 1.82 µM with ACHN renal; 2.85 µM with MDA-MB-231 breast; 1.84 µM in the assay on NCI-H23 lung; 2.3 µM in the assay with OVCAR-5 ovarian; 1.43 µM in the assay on RXF 393 renal; 1.96 µM in the assay on SK-MEL-2 melanoma. Moreover, the GI50 is 2.36 µM in the assay on SK-OV-3 ovarian, 2.8 µM in the assay with TK-10 renal and 1.6 µM with UACC-62 melanoma. Further, the TGI in the assay on ACHN renal is 4.34 µM and 3.33 µM; in the assay with MDA-MB-231 breast, 25.7 µM and 11.1 µM; in the assay on NCI-H226 lung, 16.8 µM; in the assay with NCI-H23 lung, 24.8 µM and 4.63 µM; with OVCAR-5 ovarian it was 26.6 µM and 5.67 µM; in the assay on RXF 393 renal, 6.17 µM and 2.94 µM. The TGI in the assay on SK-MEL-2 melanoma was 12.7 µM and 4.94 µM; with SK-OV-3 ovarian, 15.5 µM and 6.31 µM; with TK-10 renal, 37.2 µM and 11.6 µM; in the assay with UACC-62 melanoma, 5.32 µM and 4.06 µM.

As to `COc1cc(/C=C/c2cc(/C=C/c3ccc(O)c(OC)c3)n(C(=O)Nc3ccccc3Cl)n2)ccc1O`, the GI50 was 0.344 µM in the assay on ACHN renal; 0.708 µM with MDA-MB-231 breast; 0.617 µM in the assay on NCI-H226 lung; 0.33 µM with NCI-H23 lung; 1.65 µM in the assay with OVCAR-5 ovarian; 0.309 µM in the assay on RXF 393 renal. The GI50 was 0.397 µM in the assay on SK-MEL-2 melanoma, 0.401 µM with SK-OV-3 ovarian, 0.601 µM with TK-10 renal and 0.425 µM in the assay with UACC-62 melanoma. In addition, the TGI with ACHN renal was 5.35 µM; in the assay on MDA-MB-231 breast, 11.4 µM; with NCI-H226 lung it was 2.74 µM; in the assay with NCI-H23 lung it was 2.46 µM; in the assay with OVCAR-5 ovarian, 5.5 µM; in the assay on RXF 393 renal, 0.845 µM. The TGI with SK-MEL-2 melanoma came out at 1.6 µM; in the assay on SK-OV-3 ovarian, 2.35 µM; in the assay on TK-10 renal it was 3.6 µM; in the assay with UACC-62 melanoma, 2.5 µM.
